# Biological target: T1, HasAp (Pseudomonas aeruginosa, UniProt O69756, H32A)
# T1 sequence (O69756 1-184 H32A): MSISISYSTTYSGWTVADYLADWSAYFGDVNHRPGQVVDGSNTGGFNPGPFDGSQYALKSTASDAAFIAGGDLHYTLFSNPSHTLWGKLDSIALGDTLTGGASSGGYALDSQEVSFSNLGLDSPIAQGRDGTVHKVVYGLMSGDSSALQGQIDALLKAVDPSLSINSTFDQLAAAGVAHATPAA
# Experiment: UV-vis titration
# Format: binding
compound,measurement,value
c1c[nH]cn1 [imidazole],Kd,4.7 mM
